Reference: patent US9079876B2, “Imidazole derivatives and preparation method and use thereof” (Beijing Orbiepharm Co., Ltd., priority 2010, dated 2015)

How the values were obtained:
[1] = system: rat paw swelling induced by carrageenan; assay: Rat paw swelling induced by carrageenan (inflammation model); type: in vivo, Wistar rats
Description: In vivo test: observation of the effect of compound 1 on rat paw swelling induced by carrageenan (inflammation model evaluation)
50 rats were randomized into 5 groups, with 10 animals in each group.
The total volume prepared for each dose group was determined based on the actual weight of the animals. A corresponding volume of purified water was taken, and was added with a sample of the test compounds or of the positive control, to allow homogenous dispersion. Sodium carboxymethyl cellulose was subsequently added, to make a homogenous suspension without obvious agglomerates.
Methods: 50 Wistar rats ([…], 167-199 g) were used in the study, with 25 males and 25 females. They were randomized into 5 groups, i.e. model group, positive control group, compound 1: low, middle and high dose groups. […] 1 hour after intragastric administration, 0.1 ml 1% carrageenan was intradermally injected in the right hind plantar paw to induce inflammation. After induction of inflammation, paw plantar volume and paw thickness were measured every another hour, consecutively for six times. Paw swelling rate (%) and inhibition rate (%) were calculated.
Assay methods: volume of the rat right paw was determined using UGO Basile plethysmograph, and the liquid level was kept constant for in the same animal in each measurement; thickness of the right hind paw were measured at the depiction line in the central paw with a digital vernier caliper.
The group mean and standard deviation of paw swelling rate in each group of animals were calculated, and then the following statistical analysis was performed. The test level was 0.05, and both statistical significance and biological significance were considered in the result analysis.
Levene's Test was used for homogeneity of variance test. Single-factor analysis of variance (ANOVA) was used for statistical analysis, if no statistical significance (P>0.05) was found. Dunnett's test (parametric method) analysis was used for multiple comparison analysis, if ANOVA found statistical significance (P≦0.05).
If there was heterogeneity of variance (P≦0.05), then the Kruskal-Wallis test was used. If the test result of Kruskal-Wallis test was statistically significant (P<0.05), then Dunnett's test (non-parametric method) was used for multiple comparison analysis.

[2] = system: mice tail suspension immobility time; assay: Tail suspension test in mice (anti-depression model); type: in vivo, Male Kunming mice
Description: In Vivo Test: Tail Suspension Test in Mice (Evaluation on an Anti-Depression Model)
Male Kunming mice, approximately 20 g, were randomized into six groups, i.e. normal group, positive drug group (fluoxetine 20 mg/kg), compound 1: group A 5 mg/kg, group B 10 mg/kg, group C 20 mg/kg, and group D 40 mg/kg.
Single Dose Test: Mice were normally fed for 1 day and allowed to adapt to the environment. Then the mice were fasted (except water) for 16 hours, and were intragastrically administrated with a single dose of the compound. The normal group was intragastrically administrated with an equivalent amount of distilled water. 40 min after the administration, the mice were inverted and fixed to a tail suspension device, and the distance between the head and the desktop was about 30 cm. Immobility time was recorded with an analysis record system, for the latter 4 min within the 6 min recording period, and was used for statistical analysis.
(§1) Study with Three-Day Consecutive Dosing: Mice were normally fed for 1 day and allowed to adapt to the environment. Then the mice were intragastrically administrated with the test drug for 3 consecutive days (once per day), and the normal group was intragastrically administrated with an equivalent amount of distilled water. The mice were fasted (except water) for 16 hours before the last dosing. 40 min after the last dosing, the mice were inverted and fixed to the tail suspension device, and the distance between the head and the desktop was about 30 cm. Immobility time was recorded with an analysis record system, for the latter 4 min within the 6 min recording period, and was used for statistical analysis.
as §1, with “with Seven-Day” for “with Three-Day”, “intragastrically dosed” for “intragastrically administrated with the test drug”, “for 7” for “for 3”, “days (once/day),” for “days (once per day),”, “last administration.” for “last dosing.”, “last administration,” for “last dosing,”

[3] = 7 mg/kg intragastric, 1 h after inflammation
[4] = 7 mg/kg intragastric, 2 h after inflammation
[5] = 7 mg/kg intragastric, 3 h after inflammation
[6] = 7 mg/kg intragastric, 4 h after inflammation
[7] = 7 mg/kg intragastric, 5 h after inflammation
[8] = 7 mg/kg intragastric, 6 h after inflammation
[9] = 10 mg/kg intragastric, 1 h after inflammation
[10] = 10 mg/kg intragastric, 2 h after inflammation
[11] = 10 mg/kg intragastric, 3 h after inflammation
[12] = 10 mg/kg intragastric, 4 h after inflammation
[13] = 10 mg/kg intragastric, 5 h after inflammation
[14] = 10 mg/kg intragastric, 6 h after inflammation
[15] = 14 mg/kg intragastric, 1 h after inflammation
[16] = 14 mg/kg intragastric, 2 h after inflammation
[17] = 14 mg/kg intragastric, 3 h after inflammation
[18] = 14 mg/kg intragastric, 4 h after inflammation
[19] = 14 mg/kg intragastric, 5 h after inflammation
[20] = 14 mg/kg intragastric, 6 h after inflammation

SMILES: CS(=O)(=O)c1ccc(-n2cnc(Cl)c2-c2ccccc2)nc1 [Compound 1, 2-(4-chloro-5-phenyl-1H-imidazol-1-yl)-5-(methylsulfonyl)pyridine]
- inhibition rate of plantar paw thickness swelling [1, 3]: 27.44%
- inhibition rate of plantar paw volume swelling [1, 3]: 0.00%
- plantar paw thickness swelling rate [1, 3]: 7.97 ± 3.84%
- plantar paw volume swelling rate [1, 3]: 11.62 ± 4.73%
- inhibition rate of plantar paw thickness swelling [1, 4]: 63.92%
- inhibition rate of plantar paw volume swelling [1, 4]: 27.91%
- plantar paw thickness swelling rate [1, 4]: 5.72 ± 4.27 %
- plantar paw volume swelling rate [1, 4]: 12.62 ± 4.15%
- inhibition rate of plantar paw thickness swelling [1, 5]: 76.74%
- inhibition rate of plantar paw volume swelling [1, 5]: 43.96%
- plantar paw thickness swelling rate [1, 5]: 4.01 ± 3.33 %
- plantar paw volume swelling rate [1, 5]: 11.87 ± 3.62 %
- inhibition rate of plantar paw thickness swelling [1, 6]: 77.45%
- inhibition rate of plantar paw volume swelling [1, 6]: 58.90%
- plantar paw thickness swelling rate [1, 6]: 4.29 ± 4.47 %
- plantar paw volume swelling rate [1, 6]: 11.14 ± 3.73 %
- inhibition rate of plantar paw thickness swelling [1, 7]: 85.81%
- inhibition rate of plantar paw volume swelling [1, 7]: 55.32%
- plantar paw thickness swelling rate [1, 7]: 2.68 ± 3.82 %
- plantar paw volume swelling rate [1, 7]: 12.53 ± 5.03 %
- inhibition rate of plantar paw thickness swelling [1, 8]: 89.21%
- inhibition rate of plantar paw volume swelling [1, 8]: 57.59%
- plantar paw thickness swelling rate [1, 8]: 1.67 ± 4.28 %
- plantar paw volume swelling rate [1, 8]: 11.75 ± 4.71 %
- inhibition rate of plantar paw thickness swelling [1, 9]: 0.00%
- inhibition rate of plantar paw volume swelling [1, 9]: 0.00%
- plantar paw thickness swelling rate [1, 9]: 12.91 ± 4.89%
- plantar paw volume swelling rate [1, 9]: 12.48 ± 5.01%
- inhibition rate of plantar paw thickness swelling [1, 10]: 50.35%
- inhibition rate of plantar paw volume swelling [1, 10]: 6.86%
- plantar paw thickness swelling rate [1, 10]: 7.87 ± 3.91 %
- plantar paw volume swelling rate [1, 10]: 16.30 ± 5.55%
- inhibition rate of plantar paw thickness swelling [1, 11]: 60.54%
- inhibition rate of plantar paw volume swelling [1, 11]: 24.73%
- plantar paw thickness swelling rate [1, 11]: 6.80 ± 3.68 %
- plantar paw volume swelling rate [1, 11]: 15.95 ± 5.92%
- inhibition rate of plantar paw thickness swelling [1, 12]: 69.63%
- inhibition rate of plantar paw volume swelling [1, 12]: 45.15%
- plantar paw thickness swelling rate [1, 12]: 5.78 ± 3.69 %
- plantar paw volume swelling rate [1, 12]: 14.87 ± 5.07 %
- inhibition rate of plantar paw thickness swelling [1, 13]: 71.80%
- inhibition rate of plantar paw volume swelling [1, 13]: 44.78%
- plantar paw thickness swelling rate [1, 13]: 5.32 ± 3.99 %
- plantar paw volume swelling rate [1, 13]: 15.48 ± 5.58 %
- inhibition rate of plantar paw thickness swelling [1, 14]: 66.63%
- inhibition rate of plantar paw volume swelling [1, 14]: 43.68%
- plantar paw thickness swelling rate [1, 14]: 5.16 ± 3.94 %
- plantar paw volume swelling rate [1, 14]: 15.61 ± 7.62 %
- inhibition rate of plantar paw thickness swelling [1, 15]: 33.98%
- inhibition rate of plantar paw volume swelling [1, 15]: 0.77%
- plantar paw thickness swelling rate [1, 15]: 7.25 ± 4.10%
- plantar paw volume swelling rate [1, 15]: 10.82 ± 4.28%
- inhibition rate of plantar paw thickness swelling [1, 16]: 67.67%
- inhibition rate of plantar paw volume swelling [1, 16]: 30.59%
- plantar paw thickness swelling rate [1, 16]: 5.12 ± 3.74 %
- plantar paw volume swelling rate [1, 16]: 12.15 ± 5.20%
- inhibition rate of plantar paw thickness swelling [1, 17]: 77.77%
- inhibition rate of plantar paw volume swelling [1, 17]: 42.44%
- plantar paw thickness swelling rate [1, 17]: 3.83 ± 2.59 %
- plantar paw volume swelling rate [1, 17]: 12.20 ± 5.19 %
- inhibition rate of plantar paw thickness swelling [1, 18]: 79.53%
- inhibition rate of plantar paw volume swelling [1, 18]: 48.46%
- plantar paw thickness swelling rate [1, 18]: 3.90 ± 3.54 %
- plantar paw volume swelling rate [1, 18]: 13.97 ± 6.25 %
- inhibition rate of plantar paw thickness swelling [1, 19]: 86.47%
- inhibition rate of plantar paw volume swelling [1, 19]: 53.52%
- plantar paw thickness swelling rate [1, 19]: 2.55 ± 2.95 %
- plantar paw volume swelling rate [1, 19]: 13.03 ± 4.88 %
- inhibition rate of plantar paw thickness swelling [1, 20]: 84.04%
- inhibition rate of plantar paw volume swelling [1, 20]: 59.93%
- plantar paw thickness swelling rate [1, 20]: 2.47 ± 2.70 %
- plantar paw volume swelling rate [1, 20]: 11.10 ± 4.42 %
- inhibition of the paw swelling rate ([1]; low, middle and high dose groups (7, 10, 14 mg/kg), 4 hours after inflammation): above 30%
- tail suspension Immobility time ([2]; 3 days consecutive administration, 5 mg/kg intragastric, in s (unit assumed)): 45.36 ± 12.09
- tail suspension Immobility time ([2]; 3 days consecutive administration, 10 mg/kg intragastric, in s (unit assumed)): 31.94 ± 8.76
- tail suspension Immobility time ([2]; 3 days consecutive administration, 20 mg/kg intragastric, in s (unit assumed)): 33.64 ± 15.78
- tail suspension Immobility time ([2]; 3 days consecutive administration, 40 mg/kg intragastric, in s (unit assumed)): 41.36 ± 14.22
- tail suspension Immobility time ([2]; 7 days consecutive administration, 5 mg/kg intragastric, 5 mg/kg, in s (unit assumed)): 45.11 ± 16.88
- tail suspension Immobility time ([2]; 7 days consecutive administration, 5 mg/kg intragastric, listed as test drug, 5 mg/kg): tendency of reduction in immobility time
- tail suspension Immobility time ([2]; 7 days consecutive administration, 10 mg/kg intragastric, in s (unit assumed)): 36.47 ± 15.13
- tail suspension Immobility time ([2]; 7 days consecutive administration, 20 mg/kg intragastric, in s (unit assumed)): 29.98 ± 9.87
- tail suspension Immobility time ([2]; 7 days consecutive administration, 40 mg/kg intragastric, in s (unit assumed)): 29.70 ± 15.02
- tail suspension Immobility time ([2]; single dose, 5 mg/kg intragastric, 40 min after administration, in s (unit assumed)): 46.57 ± 16.46
- tail suspension Immobility time ([2]; single dose, 10 mg/kg intragastric, 40 min after administration, in s (unit assumed)): 47.10 ± 17.93
- tail suspension Immobility time ([2]; single dose, 20 mg/kg intragastric, 40 min after administration, in s (unit assumed)): 43.25 ± 14.41
- tail suspension Immobility time ([2]; single dose, 40 mg/kg intragastric, 40 min after administration, in s (unit assumed)): 46.58 ± 15.32
